pIC50: −log10 of the molar value.
Test: Inhibition of yeast alpha-glucosidase by colorimetric method
Set-up: species or system Saccharomyces cerevisiae

Row | SMILES | pIC50
1 | Oc1cc(COCc2cc(O)c(O)c(Br)c2Br)c(Br)c(Br)c1O | 7.01
2 | OCc1cc(O)c(O)c(Br)c1Br [LANOSOL] | 4.05
3 | OCc1cc(Br)c(O)c(Oc2c(CO)cc(Br)c(O)c2O)c1Br | 4.60
